Patent publication US20240269135A1, “METHODS OF TREATING BREAST CANCER” (ASTRAZENECA AB, priority 2021, published 2024)

System: patients with HER2-negative early breast cancer with BRCA1/2 germline pathogenic/likely pathogenic variants
Test: OlympiA randomized double-blind phase 3 trial: invasive-disease-free, distant-disease-free and overall survival (incl. subgroup and sensitivity analyses)
Format: in vivo
Text: We conducted a randomized double-blind phase 3 trial involving patients with HER2-negative early breast cancer with BRCA1/2 germline pathogenic/likely pathogenic variants (gBRCA-P/LP-variant), and high-risk clinico-pathological factors, after local treatment and (neo)adjuvant chemotherapy. […] The primary endpoint was invasive disease-free-survival.
The trial was designed and conducted as a collaborative partnership between the Breast International Group (BIG) and the sponsors NRG Oncology in the United States (US) and AstraZeneca (AZ) outside the US.
Patients eligible for the trial harbored a gBRCA-P/LP variant defined by local or central testing and high-risk, HER2-negative primary breast cancer following definitive local treatment and neoadjuvant or adjuvant chemotherapy. […] Details of gBRCA-P/LP variant screening, local and central gBRCA-P/LP variant testing, and concordance is provided in Figure S2 and Table S2/S3 in Supplementary Appendix. Any gBRCA-P/LP variant eligibility adjudication was conducted by the trial Genetics Advisory Committee. Local estrogen-receptor, progesterone-receptor and HER2 testing results were used for determination of the hormone-receptor status (cut-point for positive was ≥1%) for stratification and for hormone-receptor-positive specific stage criteria for eligibility (details for receptor status central review and concordance for all patients recruited outside China are provided in Supplementary Appendix Tables S4 and S5).
Patients were required to have completed all local therapy including radiotherapy, which interacts with PARP inhibition, at least 2 and not more than 12 weeks before study entry. Patients had completed at least 6 cycles of neoadjuvant or adjuvant chemotherapy containing anthracyclines, taxanes or both agents. Platinum chemotherapy was allowed. Adjuvant bisphosphonates and adjuvant endocrine therapy in patients with hormone-receptor positive disease were given according to institutional guidelines. No chemotherapy after surgery was allowed in patients who received neoadjuvant chemotherapy.
Patients were stratified by hormone-receptor status (positive versus negative), NACT versus ACT and use of platinum chemotherapy for current breast cancer (yes versus no).
Following randomization, medical history and physical examination were performed on a 4-weekly basis for 24 weeks and then 3-monthly through year 2, 6-monthly assessments in years 3 to 5 and annually thereafter. […] Patients had mammogram and/or breast magnetic-resonance-imaging annually.
After a first event, patients were followed for first distant relapse (if not the first event), CNS metastases, loco-regional relapses, contralateral breast cancer, second primary malignancies and survival status.
In accordance with the standardized definitions for efficacy end points (STEEP) system,^21 the primary endpoint of invasive disease-free survival was defined as the time from randomization until the date of first occurrence of one of the following events: ipsilateral invasive breast tumor, locoregional invasive disease, distant recurrence, contralateral invasive breast cancer, second primary invasive cancer or death from any cause. Patients without a documented invasive disease-free survival event were censored at the date they were last known to be disease-free.
Efficacy analyses were based on the intention-to-treat (ITT) population. Survival functions were estimated by Kaplan-Meier method. The stratified Cox proportional-hazards model was used to estimate the hazard ratio and confidence intervals, the comparison of survival between treatment arms was tested by stratified log-rank test. […] Safety was assessed in the population who received at least one dose of study medication.

[1] = ITT, olaparib-group N=921, Kaplan-Meier, median follow-up 2.5 years
[2] = all deaths, ITT, olaparib N=921
[3] = percentage of the 59 deaths in the olaparib-group

SMILES: O=C(c1cc(Cc2n[nH]c(=O)c3ccccc23)ccc1F)N1CCN(C(=O)C2CC2)CC1 [Olaparib, 4-[(3-{[4-(cyclopropane-carbonyl)piperazine-1-yl]carbonyl}-4-fluorophenyl)methyl]-2H-phthalazin-1-one]
- Deaths without a prior IDFS event (ITT, olaparib N=921): 2 no. of patients
- IDFS events (ITT, olaparib N=921): 106 no. of patients
- Total number of deaths (ITT, olaparib N=921): 59 no. of patients
- 3-year distant-disease-free survival [1]: 87.5%
- 3-year invasive-disease-free survival [1]: 85.9%
- difference in 3-year distant-disease-free survival, olaparib vs placebo (ITT, 95% CI 3.0%, 11.1%): 7.1%
- difference in 3-year invasive-disease-free survival, olaparib vs placebo (ITT, 95% CI 4.5%, 13.0%): 8.8%
- Invasive disease free survival Events (%) (Overall): 106 (11.5)/178 (19.5) events (%)
- Primary cause of death: Adverse event [2]: 1 no. of patients
- Primary cause of death: Breast cancer [2]: 55 no. of patients
- Primary cause of death: Other [2]: 3 no. of patients
- Primary cause of death: Adverse event [3]: 1.7%
- Primary cause of death: Breast cancer [3]: 93.2%
- Primary cause of death: Other [3]: 5.1%
- Invasive disease free survival Events (%) (subgroup Age 50-64 years at randomisation): 22 (11.4)/41 (19.5) events (%)
- Invasive disease free survival Events (%) (subgroup Age < 50 years at randomisation): 79 (11.3)/133 (19.8) events (%)
- Invasive disease free survival Events (%) (subgroup Age ≥ 65 years at randomisation): 5 (17.2)/4 (12.5) events (%)
- Invasive disease free survival Events (%) (subgroup BRCA1/2 both with no prior platinum therapy for current breast cancer): 0 (0.0)/0 (0.0) events (%)
- Invasive disease free survival Events (%) (subgroup BRCA1/2 both with prior platinum therapy for current breast cancer): 0/0 (0.0) events (%)
- Invasive disease free survival Events (%) (subgroup BRCA1 with no prior platinum therapy for current breast cancer): 43 (11.2)/91 (24.0) events (%)
- Invasive disease free survival Events (%) (subgroup BRCA1 with prior platinum therapy for current breast cancer): 27 (15.5)/35 (19.6) events (%)
- Invasive disease free survival Events (%) (subgroup BRCA2 with no prior platinum therapy for current breast cancer): 18 (10.2)/30 (17.8) events (%)
- Invasive disease free survival Events (%) (subgroup BRCA2 with prior platinum therapy for current breast cancer): 4 (7.5)/8 (20.0) events (%)
- Invasive disease free survival Events (%) (subgroup BRCA variant type: BRCA1): 70 (12.5)/126 (22.6) events (%)
- Invasive disease free survival Events (%) (subgroup BRCA variant type: BRCA1/2): 0 (0.0)/0 (0.0) events (%)
- Invasive disease free survival Events (%) (subgroup BRCA variant type: BRCA2): 22 (9.6)/38 (18.2) events (%)
- Invasive disease free survival Events (%) (subgroup Bilateral oophorectomy prior to first dose): 14 (7.4)/38 (21.6) events (%)
- Invasive disease free survival Events (%) (subgroup Ethnicity: Hispanic or Latino): 7 (20.6)/7 (29.2) events (%)
- Invasive disease free survival Events (%) (subgroup Ethnicity: Not Hispanic or Latino): 88 (10.9)/153 (18.8) events (%)
- Invasive disease free survival Events (%) (subgroup Ethnicity: Not known, not recorded or refused): 11 (13.4)/18 (22.8) events (%)
- Invasive disease free survival Events (%) (subgroup Geographic region: Asia Pacific and South Africa): 30 (9.9)/55 (17.2) events (%)
- Invasive disease free survival Events (%) (subgroup Geographic region: Europe): 62 (12.9)/95 (21.0) events (%)
- Invasive disease free survival Events (%) (subgroup Geographic region: North America): 11 (9.0)/23 (17.4) events (%)
- Invasive disease free survival Events (%) (subgroup Geographic region: South America): 3 (18.8)/5 (41.7) events (%)
- Invasive disease free survival Events (%) (subgroup HR status: HR+/HER2−): 19 (11.3)/25 (15.9) events (%)
- Invasive disease free survival Events (%) (subgroup HR status: TNBC): 87 (11.6)/153 (20.2) events (%)
- Invasive disease free survival Events (%) (subgroup HR+/HER2− with adjuvant chemotherapy): 6 (9.4)/5 (7.7) events (%)
- Invasive disease free survival Events (%) (subgroup HR+/HER2− with neoadjuvant chemotherapy): 13 (12.5)/20 (21.7) events (%)
- Invasive disease free survival Events (%) (subgroup Jewish descent: No, not of Ashkenazi descent): 100 (11.4)/169 (19.3) events (%)
- Invasive disease free survival Events (%) (subgroup Jewish descent: Yes, of Ashkenazi descent): 6 (14.6)/9 (25.0) events (%)
- Invasive disease free survival Events (%) (subgroup No bilateral oophorectomy prior to first dose): 92 (12.6)/140 (18.9) events (%)
- Invasive disease free survival Events (%) (subgroup No prior platinum/ACT): 28 (7.3)/57 (14.8) events (%)
- Invasive disease free survival Events (%) (subgroup No prior platinum/HR+/HER2−): 13 (9.3)/22 (16.4) events (%)
- Invasive disease free survival Events (%) (subgroup No prior platinum/NACT): 44 (15.1)/78 (26.8) events (%)
- Invasive disease free survival Events (%) (subgroup No prior platinum/TNBC): 59 (11.1)/113 (20.8) events (%)
- Invasive disease free survival Events (%) (subgroup Primary Study Database: Breast International Group (BIG)): 95 (11.7)/160 (19.9) events (%)
- Invasive disease free survival Events (%) (subgroup Primary Study Database: NRG Oncology (US)): 11 (9.9)/18 (16.5) events (%)
- Invasive disease free survival Events (%) (subgroup Prior Chemo: Adjuvant): 36 (7.8)/61 (13.4) events (%)
- Invasive disease free survival Events (%) (subgroup Prior Chemo: Neoadjuvant): 70 (15.2)/117 (25.4) events (%)
- Invasive disease free survival Events (%) (subgroup Prior Platinum: No): 72 (10.7)/135 (20.0) events (%)
- Invasive disease free survival Events (%) (subgroup Prior Platinum: Yes): 34 (13.8)/43 (18.0) events (%)
- Invasive disease free survival Events (%) (subgroup Prior platinum/ACT): 8 (10.3)/4 (5.7) events (%)
- Invasive disease free survival Events (%) (subgroup Prior platinum/HR+/HER2−): 6 (21.4)/3 (13.0) events (%)
- Invasive disease free survival Events (%) (subgroup Prior platinum/NACT): 26 (15.4)/39 (23.1) events (%)
- Invasive disease free survival Events (%) (subgroup Prior platinum/TNBC): 28 (12.8)/40 (18.5) events (%)
- Invasive disease free survival Events (%) (subgroup Race: Asian): 25 (9.7)/46 (16.9) events (%)
- Invasive disease free survival Events (%) (subgroup Race: Black/African-American): 4 (21.1)/5 (17.2) events (%)
- Invasive disease free survival Events (%) (subgroup Race: Other): 2 (11.8)/3 (20.0) events (%)
- Invasive disease free survival Events (%) (subgroup Race: White): 75 (12.0)/124 (20.7) events (%)
- Invasive disease free survival Events (%) (subgroup TNBC adjuvant cohort, pN status at surgery: Node negative): 13 (6.4)/22 (11.5) events (%)
- Invasive disease free survival Events (%) (subgroup TNBC adjuvant cohort, pN status at surgery: Node positive): 15 (8.6)/31 (17.5) events (%)
- Invasive disease free survival Events (%) (subgroup TNBC with adjuvant chemotherapy): 30 (7.6)/56 (14.4) events (%)
- Invasive disease free survival Events (%) (subgroup TNBC with neoadjuvant chemotherapy): 57 (16.1)/97 (26.4) events (%)
- Invasive disease free survival Events (%) (subgroup breast surgery prior to randomisation: Breast conservation): 20 (9.0)/46 (19.2) events (%)
- Invasive disease free survival Events (%) (subgroup post neoadjuvant group: CPS + EG score of 2, 3 or 4): 55 (13.8)/96 (24.8) events (%)
- Invasive disease free survival Events (%) (subgroup post neoadjuvant group: CPS + EG score of 5 or 6): 11 (50.0)/10 (66.7) events (%)
- Invasive disease free survival Events (%) (subgroup prior chemotherapy: Anthracycline and taxane regimen): 101 (11.6)/168 (19.8) events (%)
- Invasive disease free survival Events (%) (subgroup prior chemotherapy: Anthracycline regimen (without taxane)): 0 (0.0)/2 (15.4) events (%)
- Invasive disease free survival Events (%) (subgroup prior chemotherapy: Taxane regimen (without Anthracycline)): 5 (11.6)/8 (15.4) events (%)
